Reference: patent US20020198254A1, “Polyamide analogs” (priority 2000, published 2002)
≈ marks a conversion by molar mass, not a printed value. Like-named read-outs stand apart in the source and are kept apart here.

Tests used:
Assay type in all cases: cell-based
[1] = system: VRE-UCD3 (vancomycin resistant enterococci); assay: MIC assay, VRE strain UCD-3; conditions: 25 μg/mL Vancomycin - 24 h; for MIC: Enterococcus, VRE, read-out: MIC Assay VRE Strains: UCD-3 van25
Protocol: (§1) These assays are adapted from NCCLS protocols M7-A4 and M27-A (NCCLS vol 17:9 and vol 17:2) as modified by Sandven, S. Clin. Micro. (1999) 37:12, p.3856-3859. MIC values for Aspergillus fumigatus were determined using NCCLS protocol M38-P.
(§2) All compounds were dissolved in 100% DMSO to a stock concentration of 10 mM and use fresh or stored at −80° C. Stock compounds were kept frozen until needed and used freshly with no more then one freeze-thaw cycle. When used for test purposes, compounds were diluted in the appropriate media depending on the organism being tested.
(§3) For yeast and aspergillus species, seven 1:2 serial dilutions of compound in appropriate media buffered with MOPS at pH 7.0 were prepared such that the final starting test compound concentrations were 50.0 uM for yeast and 50 uM aspergillus species. For bacteria, dilutions were made in growth media used for the particular bacteria being tested.
(§4) Inoculums are made in the same manner as yeast except all dilutions are made in normal saline, with a final dilution of 1:200 and an inoculum of 10 μL. VRE are vancomycin resistant enterococci, BM4147 and UCD-3 represent two different sources of VRE. MRSA are […] resistant Staphylococcus Aureus.

[2] = system: VRE-BM4147 (vancomycin resistant enterococci); assay: MIC assay, VRE strain BM4147; conditions: 25 μg/mL Vancomycin - 24 h; for MIC: Enterococcus, VRE, read-out: MIC Assay VRE Strains: BM4147 van25
Protocol: as §1, §2, §3, §4

Bacillus cereus = assay: MIC assay, B. cereus; conditions: CAMHB, 16 h; for MIC: Bacillus cereus, read-out: MIC Assay Other Strains: B. cereus
Protocol: as §1, §2, §3, §4

Candida albicans = assay: MIC assay, yeast C. albicans; conditions: RPMI, 48 h, Alamar Blue; for MIC: Candida albicans
Aspergillus fumigatus = assay: MIC assay, filamentous fungi A. fumigatus; conditions: 48 h at 35C, no visible growth; for MIC: Aspergillus fumigatus
[3] = system: MRSA (methylacillin resistant Staphylococcus Aureus); assay: MIC assay, MRSA; conditions: for MIC: Staphylococcus aureus, MRSA
Protocol: as §1, §2, §3, §4

E coli = assay: MIC assay, E coli
Protocol: as §1, §2, §3, §4

WST-CEM T-cell line = assay: Toxicity screen on WST-CEM T-cell line
Protocol: Toxicity screen was done on a WST-CEM T-cell line and the minimum percent verses a no drug control was measured.

Pseudomonas aeruginosa = assay: MIC assay, P. aeruginosa; conditions: CAMHB, 16 h
Protocol: as §1, §2, §3, §4

Staphylococcus aureus = assay: MIC assay, S. aureus; conditions: CAMHB, 16 h
Protocol: as §1, §2, §3, §4

[4] = WST-CEM T-cell line, ND = no drug control

Compound	MIC Assay VRE Strains: UCD-3 van25 [1] [µM]	MIC Assay VRE Strains: BM4147 van25 [2] [µM]	MIC Assay Other Strains: B. cereus (Bacillus cereus) [µM]	MIC Assay C. Albicans (Candida albicans) [µM]	MIC Assay A fumigatus (Aspergillus fumigatus) [µM]	MIC Assay E coli (E coli) [µM]	CEM: toxicity screen, minimum percent verses a no drug control (WST-CEM T-cell line; [4]) [% ND]	MIC [1] [µM]	MIC (Aspergillus fumigatus) [µM]	MIC (E coli) [µM]	MIC Assay Other Strains: P. aeruginosa (Pseudomonas aeruginosa) [µM]	MIC Assay Other Strains: S. aureus (Staphylococcus aureus) [µM]	also measured
CC(C)CCn1cc(NC(=O)CN)cc1C(=O)Nc1ccc(NC(=O)c2cc(NC(=O)CN)cn2CCC(C)C)cc1 [Compound 188a]	11.4	11.4	22.7 (≈ 13.1 µg/mL)	>44.4	>50	22.7 (≈ 13.1 µg/mL)	6.9						MIC Assay MRSA [3]: 11.4 µM (≈ 6.6 µg/mL)
CC/N=C(/NCCN(C)C)Nc1cc(C(=O)Nc2ccc(NC(=O)c3cc(N/C(=N/CC)NCCN(C)C)cn3CCC(C)C)cc2)n(CCC(C)C)c1 [Compound 191]							3.7	11.4	12.5 (≈ 9.34 µg/mL)	22.7 (≈ 17 µg/mL)			MIC (Bacillus cereus): 5.7 µM (≈ 4.26 µg/mL); MIC (Candida albicans): 11.1 µM (≈ 8.29 µg/mL)
NCCCC(N)C(=O)N1CCCC1C(=O)Nc1cc(C(=O)NC2CCC(NC(=O)c3cc(NC(=O)C4CCCN4C(=O)C(N)CCCN)cn3CC3CC3)CC2)n(CC2CC2)c1 (stereo not drawn) [Compound 172, Bis-trans-1,4-{[4-(2,5-diamino-pentanoyl)pyrrolidine-2-carbonyl-amino]-1-cyclopropylmethyl-1H-pyrrol-2-yl-carbonylamino}cyclohexane]	>45.5	>45.5		>44.4	>50	>45.5							MIC Assay MRSA [3]: >45.5 µM; CEM: toxicity screen, minimum percent verses a no drug control (WST-CEM T-cell line): 25.5% ND
1,5-bis-{4-[(NH2(CH2)3CONH)-1-methyl-1H-pyrrol-2-yl-carbonylamino]-benzimidazole [Compound 78]	>45.5	>45.5	22.7								>45.5	45.5	
Cn1cc(NC(=O)CCCNC(=N)N)cc1C(=O)Nc1ccc2[nH]c(NC(=O)c3cc(NC(=O)CCCNC(=N)N)cn3C)nc2c1 [Compound 81]	>45.5	>45.5	5.7 (≈ 3.69 µg/mL)	22.2 (≈ 14.4 µg/mL)							>45.5	45.5 (≈ 29.4 µg/mL)	
CC(C)CCn1cc(NC(=O)CNC(=N)N)cc1C(=O)Nc1ccc(NC(=O)c2cc(NC(=O)CNC(=N)N)cn2CCC(C)C)cc1 [Compound 189a]							7.7	11.4	12.5 (≈ 8.28 µg/mL)	11.4 (≈ 7.56 µg/mL)			MIC [2]: 11.4 µM; MIC (Bacillus cereus): 2.8 µM (≈ 1.86 µg/mL); MIC (Candida albicans): 22.2 µM (≈ 14.7 µg/mL)
O=C(NC1CCC(NC(=O)c2cc(NC(=O)C3CCCN3)cn2CC2CC2)CC1)c1cc(NC(=O)C2CCCN2)cn1CC1CC1 (stereo not drawn) [Compound 171, Bis-trans-1,4-[4-(pyrrolidine-2-carbonyl-amino)-1-cyclopropylmethyl-1H-pyrrol-2-yl-carbonylamino]cyclohexane]							91.1	> 45.5	> 50	> 45.5			MIC [2]: > 45.5 µM; MIC (Candida albicans): > 44.4 µM; MIC [3]: > 45.5 µM
CC(C)C(N)C(=O)Nc1cc(C(=O)NCCNC(=O)c2cc(NC(=O)C(N)C(C)C)cn2CC2CC2)n(CC2CC2)c1 (stereo not shown) [Compound 170, Bis-1,2-[4-(2-amino-3-methyl-butyrylamino)-1-cyclopropylmethyl-1H-pyrrol-2-yl-carbonylamino]-ethane]	>45.5	>45.5		>44.4	>50	>45.5							MIC Assay MRSA [3]: >45.5 µM; CEM: toxicity screen, minimum percent verses a no drug control (WST-CEM T-cell line): 90.0% ND
Cn1cc(NC(=O)CCNC(=N)N)cc1C(=O)Nc1ccc2[nH]c(NC(=O)c3cc(NC(=O)CCNC(=N)N)cn3C)nc2c1 [Compound 80]	>45.5	>45.5	5.7 (≈ 3.53 µg/mL)	>44.4							>45.5	>45.5	
1,5-bis-{4-[(NH2CH2CONH)-1-methyl-1H-pyrrol-2-yl-carbonylamino]-benzimidazole [Compound 76]	>45.5	>45.5	>45.5	>44.4							>45.5	>45.5	
CC(C)CCn1cc(NC(=O)CN)cc1C(=O)Nc1ccc2ccc(NC(=O)c3cc(NC(=O)CN)cn3CCC(C)C)cc2c1 [Compound 188b]			22.7 (≈ 14.3 µg/mL)	22.2 (≈ 14 µg/mL)	>50	22.7 (≈ 14.3 µg/mL)	9.2						
CC(C)CCn1cc(NC(=O)CNC(=N)N)cc1C(=O)Nc1ccc2ccc(NC(=O)c3cc(NC(=O)CNC(=N)N)cn3CCC(C)C)cc2c1 [Compound 189b]							10.2	5.7	3.1 (≈ 2.21 µg/mL)	45.5 (≈ 32.4 µg/mL)			MIC (Bacillus cereus): 2.8 µM (≈ 2 µg/mL)
1,5-bis-{4-[(NH2(CH2)2CONH)-1-methyl-1H-pyrrol-2-yl-carbonylamino]-benzimidazole [Compound 77]	>45.5	>45.5	22.7	>44.4							>45.5	45.5	
NC(Cc1c[nH]cn1)C(=O)Nc1cc(C(=O)NC2CCC(NC(=O)c3cc(NC(=O)C(N)Cc4c[nH]cn4)cn3CC3CC3)CC2)n(CC2CC2)c1 (stereo not drawn) [Compound 173, Bis-trans-1,4-{4-[2-amino-3-(1H-imidazol-4-yl)propyonylamino]-1-cyclopropylmethyl-1H-pyrrol-2-yl-carbonylamino]cyclohexane]	>45.5	>45.5		>44.4	>50	>45.5							MIC Assay MRSA [3]: >45.5 µM; CEM: toxicity screen, minimum percent verses a no drug control (WST-CEM T-cell line): 87.2% ND
Cn1cc(NC(=O)CNC(=N)N)cc1C(=O)Nc1ccc2[nH]c(NC(=O)c3cc(NC(=O)CNC(=N)N)cn3C)nc2c1 [Compound 79]	11.4	45.5	11.4 (≈ 6.73 µg/mL)								>45.5	>45.5	
N=C(N)NCC(=O)Nc1cc(C(=O)NCCNC(=O)c2cc(NC(=O)CNC(=N)N)cn2CC2CC2)n(CC2CC2)c1 [Compound 174]							92.9	> 45.5	> 50	> 45.5			MIC [2]: > 45.5 µM; MIC (Candida albicans): > 44.4 µM; MIC [3]: > 45.5 µM
